Assays:
[1] = target: cGMP-inhibited 3',5'-cyclic phosphodiesterase 3A (Homo sapiens, UniProt Q14432); type: functional
[2] = target: T1, Muscarinic acetylcholine receptor M1 (Homo sapiens, UniProt P11229); type: functional, cell-based
T1 sequence (P11229 whole entry): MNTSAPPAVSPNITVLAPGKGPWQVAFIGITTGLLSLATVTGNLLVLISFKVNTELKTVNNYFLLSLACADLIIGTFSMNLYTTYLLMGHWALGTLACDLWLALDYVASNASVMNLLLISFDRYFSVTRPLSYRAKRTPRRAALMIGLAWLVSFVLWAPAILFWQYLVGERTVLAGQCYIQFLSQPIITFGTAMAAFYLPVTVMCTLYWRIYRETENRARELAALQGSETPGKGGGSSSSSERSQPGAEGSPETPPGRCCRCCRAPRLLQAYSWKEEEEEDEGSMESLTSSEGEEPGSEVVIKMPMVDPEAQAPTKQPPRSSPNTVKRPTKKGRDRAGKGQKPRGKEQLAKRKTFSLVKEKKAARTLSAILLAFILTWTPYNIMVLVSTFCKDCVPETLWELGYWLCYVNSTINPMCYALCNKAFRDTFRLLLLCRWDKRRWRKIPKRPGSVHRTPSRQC

[3] = target: T2, Prostaglandin G/H synthase 1 (Rattus norvegicus, UniProt Q63921); type: functional
T2 sequence (Q63921 whole entry): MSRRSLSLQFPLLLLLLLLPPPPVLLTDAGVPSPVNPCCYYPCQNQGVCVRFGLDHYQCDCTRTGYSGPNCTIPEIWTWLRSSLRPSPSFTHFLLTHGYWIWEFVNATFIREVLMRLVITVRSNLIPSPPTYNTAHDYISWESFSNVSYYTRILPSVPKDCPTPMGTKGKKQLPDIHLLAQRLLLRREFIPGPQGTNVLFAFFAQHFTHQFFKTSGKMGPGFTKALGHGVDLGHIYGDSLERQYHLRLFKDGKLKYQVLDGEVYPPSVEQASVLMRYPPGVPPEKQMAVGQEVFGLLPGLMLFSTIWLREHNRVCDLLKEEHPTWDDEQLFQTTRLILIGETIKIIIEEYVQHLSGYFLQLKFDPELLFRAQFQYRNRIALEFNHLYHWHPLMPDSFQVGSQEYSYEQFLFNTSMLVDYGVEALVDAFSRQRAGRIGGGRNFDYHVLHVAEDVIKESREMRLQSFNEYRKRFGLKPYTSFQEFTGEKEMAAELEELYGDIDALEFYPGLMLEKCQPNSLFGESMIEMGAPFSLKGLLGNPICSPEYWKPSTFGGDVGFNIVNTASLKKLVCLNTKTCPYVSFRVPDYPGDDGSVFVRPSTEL

[4] = target: T3, Thromboxane A2 receptor (Homo sapiens, UniProt P21731); type: functional, cell-based
T3 sequence (P21731 whole entry): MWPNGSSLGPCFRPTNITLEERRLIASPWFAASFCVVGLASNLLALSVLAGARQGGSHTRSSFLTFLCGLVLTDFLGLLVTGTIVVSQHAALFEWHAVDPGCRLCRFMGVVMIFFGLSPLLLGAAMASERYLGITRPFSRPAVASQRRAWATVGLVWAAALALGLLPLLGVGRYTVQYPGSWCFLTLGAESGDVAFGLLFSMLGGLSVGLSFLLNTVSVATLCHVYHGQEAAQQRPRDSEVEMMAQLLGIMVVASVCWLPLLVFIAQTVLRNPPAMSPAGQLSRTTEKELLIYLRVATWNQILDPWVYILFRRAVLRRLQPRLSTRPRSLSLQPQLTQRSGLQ

[5] = target: T4, Estrogen receptor (Homo sapiens, UniProt P03372)
T4 sequence (P03372 whole entry): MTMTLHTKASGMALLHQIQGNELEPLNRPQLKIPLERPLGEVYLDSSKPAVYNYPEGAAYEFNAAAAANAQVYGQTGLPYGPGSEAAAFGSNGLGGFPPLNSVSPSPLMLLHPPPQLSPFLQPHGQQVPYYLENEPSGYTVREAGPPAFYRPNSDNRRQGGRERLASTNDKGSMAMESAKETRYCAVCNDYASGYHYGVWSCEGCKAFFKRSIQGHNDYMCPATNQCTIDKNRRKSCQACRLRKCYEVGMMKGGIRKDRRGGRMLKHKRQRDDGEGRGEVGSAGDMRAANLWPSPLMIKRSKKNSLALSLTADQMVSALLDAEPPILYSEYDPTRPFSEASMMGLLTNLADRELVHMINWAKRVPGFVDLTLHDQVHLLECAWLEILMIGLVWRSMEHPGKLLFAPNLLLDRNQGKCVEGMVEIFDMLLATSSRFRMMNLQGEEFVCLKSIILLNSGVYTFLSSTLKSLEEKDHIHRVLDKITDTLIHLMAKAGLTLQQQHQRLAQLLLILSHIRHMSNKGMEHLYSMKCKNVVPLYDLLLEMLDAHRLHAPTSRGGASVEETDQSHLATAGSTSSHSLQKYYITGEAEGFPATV

[6] = target: Histamine H2 receptor (Homo sapiens, UniProt P25021); type: functional, cell-based
Histamine H2 receptor, sequence (P25021 whole entry): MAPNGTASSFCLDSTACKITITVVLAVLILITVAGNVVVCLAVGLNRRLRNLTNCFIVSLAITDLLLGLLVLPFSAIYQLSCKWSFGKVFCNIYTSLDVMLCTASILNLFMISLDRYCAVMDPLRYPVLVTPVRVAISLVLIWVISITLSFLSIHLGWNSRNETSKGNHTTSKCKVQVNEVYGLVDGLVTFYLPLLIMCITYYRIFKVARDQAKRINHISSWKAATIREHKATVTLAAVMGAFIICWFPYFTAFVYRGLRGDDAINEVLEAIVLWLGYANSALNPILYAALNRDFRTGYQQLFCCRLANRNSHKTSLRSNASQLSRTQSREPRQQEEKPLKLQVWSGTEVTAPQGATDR

[7] = target: Cannabinoid receptor 1 (Homo sapiens, UniProt P21554); type: functional, cell-based
Cannabinoid receptor 1, sequence (P21554 whole entry): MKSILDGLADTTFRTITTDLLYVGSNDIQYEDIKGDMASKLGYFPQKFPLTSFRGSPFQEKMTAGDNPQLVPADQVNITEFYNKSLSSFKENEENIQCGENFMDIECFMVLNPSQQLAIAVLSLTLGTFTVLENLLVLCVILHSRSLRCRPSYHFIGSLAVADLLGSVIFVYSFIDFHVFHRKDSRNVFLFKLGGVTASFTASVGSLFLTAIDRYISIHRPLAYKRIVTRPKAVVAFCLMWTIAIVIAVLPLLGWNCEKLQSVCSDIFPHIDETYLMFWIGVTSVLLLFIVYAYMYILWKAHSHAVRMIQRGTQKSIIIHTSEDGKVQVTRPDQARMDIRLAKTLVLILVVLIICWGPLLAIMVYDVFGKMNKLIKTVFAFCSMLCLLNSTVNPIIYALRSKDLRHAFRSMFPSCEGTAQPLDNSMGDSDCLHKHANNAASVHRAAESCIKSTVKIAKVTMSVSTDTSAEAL

[8] = target: T5, Alpha-1A adrenergic receptor (Homo sapiens, UniProt P35348); type: functional, cell-based
T5 sequence (P35348 whole entry): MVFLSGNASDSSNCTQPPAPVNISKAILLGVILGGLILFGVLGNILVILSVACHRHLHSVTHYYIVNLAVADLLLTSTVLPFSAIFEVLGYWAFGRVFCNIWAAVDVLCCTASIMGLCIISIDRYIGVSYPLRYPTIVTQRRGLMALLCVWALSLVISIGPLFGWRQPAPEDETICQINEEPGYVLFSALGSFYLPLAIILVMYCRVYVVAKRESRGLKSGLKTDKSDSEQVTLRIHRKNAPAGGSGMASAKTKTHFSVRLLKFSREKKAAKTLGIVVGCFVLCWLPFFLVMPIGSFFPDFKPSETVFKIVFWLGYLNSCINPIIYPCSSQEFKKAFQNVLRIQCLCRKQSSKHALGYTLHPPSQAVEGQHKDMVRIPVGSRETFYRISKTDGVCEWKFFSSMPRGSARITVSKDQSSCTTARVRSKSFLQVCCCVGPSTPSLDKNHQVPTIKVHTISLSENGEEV

[9] = target: Gamma-aminobutyric acid receptor subunit alpha-1 (Rattus norvegicus, UniProt P62813)
Gamma-aminobutyric acid receptor subunit alpha-1, sequence (P62813 whole entry): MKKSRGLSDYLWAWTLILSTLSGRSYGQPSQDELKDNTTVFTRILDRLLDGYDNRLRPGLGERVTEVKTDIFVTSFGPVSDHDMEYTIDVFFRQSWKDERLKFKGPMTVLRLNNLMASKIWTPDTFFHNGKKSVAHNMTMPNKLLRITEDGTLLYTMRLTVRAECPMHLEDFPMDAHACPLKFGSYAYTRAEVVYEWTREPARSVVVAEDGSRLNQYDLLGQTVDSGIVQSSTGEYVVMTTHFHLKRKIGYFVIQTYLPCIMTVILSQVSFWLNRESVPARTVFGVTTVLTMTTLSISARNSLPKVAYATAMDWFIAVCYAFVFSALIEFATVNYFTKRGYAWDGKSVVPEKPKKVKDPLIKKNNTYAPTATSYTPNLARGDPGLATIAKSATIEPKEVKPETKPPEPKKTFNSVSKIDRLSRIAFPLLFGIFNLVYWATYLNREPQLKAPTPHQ
Further: assay procedure not described here.

cGMP-inhibited 3',5'-cyclic phosphodiesterase 3A, sequence (Q14432 whole entry): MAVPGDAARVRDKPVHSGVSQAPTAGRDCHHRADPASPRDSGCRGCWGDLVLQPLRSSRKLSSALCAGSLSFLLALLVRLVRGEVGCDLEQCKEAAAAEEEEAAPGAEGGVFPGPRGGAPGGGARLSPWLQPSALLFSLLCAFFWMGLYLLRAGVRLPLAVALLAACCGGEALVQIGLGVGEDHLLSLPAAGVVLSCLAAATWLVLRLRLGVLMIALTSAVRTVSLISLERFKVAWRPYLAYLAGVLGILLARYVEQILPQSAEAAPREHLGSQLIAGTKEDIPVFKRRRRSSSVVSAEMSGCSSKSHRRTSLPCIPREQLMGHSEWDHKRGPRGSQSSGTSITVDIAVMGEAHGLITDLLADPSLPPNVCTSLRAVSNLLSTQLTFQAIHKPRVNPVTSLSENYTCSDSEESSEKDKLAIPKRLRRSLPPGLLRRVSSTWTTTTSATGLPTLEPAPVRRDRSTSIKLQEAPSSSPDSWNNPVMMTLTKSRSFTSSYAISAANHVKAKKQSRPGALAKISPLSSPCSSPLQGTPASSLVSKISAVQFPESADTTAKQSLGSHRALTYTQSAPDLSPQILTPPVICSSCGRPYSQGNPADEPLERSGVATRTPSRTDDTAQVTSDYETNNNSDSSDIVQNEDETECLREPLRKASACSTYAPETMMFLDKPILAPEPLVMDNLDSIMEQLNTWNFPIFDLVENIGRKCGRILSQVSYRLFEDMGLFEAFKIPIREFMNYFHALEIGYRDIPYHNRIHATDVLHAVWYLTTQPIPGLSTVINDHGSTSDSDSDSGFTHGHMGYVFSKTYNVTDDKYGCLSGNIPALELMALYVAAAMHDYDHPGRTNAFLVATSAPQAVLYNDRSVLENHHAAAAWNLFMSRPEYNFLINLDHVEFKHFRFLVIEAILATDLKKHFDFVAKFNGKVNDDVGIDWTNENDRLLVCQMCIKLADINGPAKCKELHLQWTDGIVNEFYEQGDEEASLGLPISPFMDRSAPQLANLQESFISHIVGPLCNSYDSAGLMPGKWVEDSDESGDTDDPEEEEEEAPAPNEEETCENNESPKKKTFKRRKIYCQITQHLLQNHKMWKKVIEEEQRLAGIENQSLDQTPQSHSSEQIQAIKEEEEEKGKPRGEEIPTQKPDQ

SMILES | AC50 [1] [µM] | AC50 [2] [µM] | AC50 [3] [µM] | AC50 [4] [µM] | AC50 [5] [µM] | AC50 [6] [µM] | AC50 [7] [µM] | AC50 [8] [µM] | AC50 [9] [µM]
O=C(O)c1cccc(-c2noc(-c3ccccc3F)n2)c1 | > 30 | > 30 | > 30 | > 30 | – | – | – | – | –
Nc1ccc(C(=O)O)cc1 [AMINOBENZOIC ACID] | > 30 | > 30 | – | > 30 | > 30 | – | – | – | –
CCCC1C(=O)N2C(N(C)C)=Nc3ccc(C)cc3N2C1=O (stereo not given) [APAZONE] | > 30 | > 30 | – | > 30 | – | – | – | – | –
CCS(=O)(=O)N1CC(CC#N)(n2cc(-c3ncnc4[nH]ccc34)cn2)C1 [BARICITINIB] | > 30 | > 10 | – | > 30 | > 30 | – | – | – | –
O=C1CN=C(c2ccccc2)c2c(sc3c2CCCC3)N1 [BENTAZEPAM] | > 30 | > 30 | – | > 30 | > 30 | – | – | – | –
O=C(Cn1ccnc1[N+](=O)[O-])NCc1ccccc1 [BENZNIDAZOLE] | > 30 | – | > 30 | > 30 | > 30 | > 30 | > 30 | > 30 | > 30
O=C(O)CCCN1CCC(O[C@@H](c2ccc(Cl)cc2)c2ccccn2)CC1 [BEPOTASTINE] | > 30 | > 30 | – | > 30 | > 30 | – | – | – | –
CCCCN(CCCC)CCCOC(=O)c1ccc(N)cc1 [BUTACAINE] | > 30 | > 30 | – | > 30 | – | – | – | – | –
NCc1ccccc1CC(=O)N[C@@H]1C(=O)N2C(C(=O)O)=C(CSc3nnnn3CC(=O)O)CS[C@H]12 [CEFORANIDE] | > 30 | > 10 | – | > 30 | > 30 | – | – | – | –
COCC1=C(C(=O)OC(C)OC(=O)OC(C)C)N2C(=O)[C@@H](NC(=O)/C(=N\OC)c3csc(N)n3)[C@H]2SC1 (stereo not given in full) [CEFPODOXIME PROXETIL] | > 30 | – | – | > 30 | > 30 | > 30 | > 30 | > 30 | > 30
NS(=O)(=O)c1cc2c(cc1Cl)NC(C1CC3C=CC1C3)NS2(=O)=O (stereo not given) [CYCLOTHIAZIDE] | > 30 | 17.6 | – | > 30 | > 30 | – | – | – | –
Nc1nc(-n2cc(C(=O)O)c(=O)c3cc(F)c(N4CC(O)C4)c(Cl)c32)c(F)cc1F [DELAFLOXACIN] | > 30 | > 30 | – | > 30 | > 30 | – | – | – | –
COc1ccc(-c2cc(=O)c3c(O)cc(O[C@@H]4O[C@H](CO[C@@H]5O[C@@H](C)[C@H](O)[C@@H](O)[C@H]5O)[C@@H](O)[C@H](O)[C@H]4O)cc3o2)cc1O [DIOSMIN] | > 30 | > 30 | – | > 30 | > 30 | – | – | – | –
CCOc1ccc(/C=C2\NCCc3cc(OCC)c(OCC)cc32)cc1OCC [DROTAVERINE] | > 30 | 12.3 | – | > 30 | > 30 | – | – | – | –
N/N=c1/cc2c(n[nH]1)CCN(C(=O)c1ccccc1)C2 [ENDRALAZINE] | > 30 | – | – | > 30 | > 30 | > 30 | > 30 | > 30 | > 30
CCOC(=O)C(c1c(O)c2ccccc2oc1=O)c1c(O)c2ccccc2oc1=O [ETHYL BISCOUMACETATE] | > 30 | > 30 | – | > 30 | > 30 | – | – | – | –
Cc1nc(-c2ccc(OCC(C)C)c(C#N)c2)sc1C(=O)O [FEBUXOSTAT] | > 30 | 16.1 | – | > 30 | > 30 | – | – | – | –
O=C1NCC2(CCN(CCc3ccccc3)CC2)O1 [FENSPIRIDE] | > 30 | > 30 | – | > 30 | > 30 | – | – | – | –
C[C@@H]1C[C@H]2[C@@H]3C[C@H](F)C4=CC(=O)C=C[C@]4(C)[C@@]3(F)[C@@H](O)C[C@]2(C)[C@@]1(O)C(=O)COC(=O)C(C)(C)C [FLUMETHASONE PIVALATE] | > 30 | > 30 | – | > 30 | > 30 | – | – | – | –
CS(=O)(=O)Nc1cc2occ(NC=O)c(=O)c2cc1Oc1ccccc1 [IGURATIMOD] | > 30 | > 30 | > 30 | > 30 | – | – | – | – | –
CN1C(=O)N(C)C2C1N(C)C(=O)N2C (stereo not given) [MEBICAR] | > 30 | – | – | > 30 | > 30 | > 30 | > 30 | > 30 | > 30
CCC1(c2cccc(O)c2)CCCCN(C)C1 (stereo not given) [MEPTAZINOL] | > 30 | > 30 | – | > 30 | – | – | – | – | –
C1N2CN3CN1CN(C2)C3 [METHENAMINE] | > 30 | > 30 | – | > 30 | – | – | – | – | –
Nc1ccc(/N=N/c2ccccc2)c(N)n1 [PHENAZOPYRIDINE] | 20.9 | – | – | > 30 | > 30 | > 30 | > 30 | > 30 | > 30
CC[C@@H]1/C=C(\C)C[C@H](C)C[C@H](OC)[C@H]2O[C@@](O)(C(=O)C(=O)N3CCCC[C@H]3C(=O)O[C@H](/C(C)=C/[C@@H]3CC[C@H](Cl)[C@H](OC)C3)[C@H](C)[C@@H](O)CC1=O)[C@H](C)C[C@@H]2OC [PIMECROLIMUS] | > 3 | > 30 | – | > 30 | – | – | – | – | –
CC(C(=O)O)c1ccc2c(c1)Cc1cccnc1O2 (stereo not given) [PRANOPROFEN] | > 30 | > 30 | – | > 30 | – | – | – | – | –
CCO[C@@H](Cc1ccc(OCCn2c(C)ccc2-c2ccc(SC)cc2)cc1)C(=O)O [SAROGLITAZAR] | > 30 | – | – | 16.4 | > 30 | – | – | – | –
C[C@@H]1O[C@@H](OC[C@H]2O[C@@H](Oc3c(-c4ccc(OCCO)c(OCCO)c4)oc4cc(OCCO)cc(O)c4c3=O)[C@H](O)[C@@H](O)[C@@H]2O)[C@H](O)[C@H](O)[C@H]1O [TROXERUTIN] | > 30 | > 30 | – | > 30 | – | – | – | – | –

— ChEMBL document CHEMBL5291721, “A preclinical secondary pharmacology resource illuminates target-adverse drug reaction associations of marketed drugs” (Nat Commun, 2023)
